Several values for one entry are separate records, joined by “and”; a condition that tells them apart may be missing. Equal entries are not always repeated.
Details: for vapor or sublimation pressure: Liquid, Closed cell (Static) method

FC(F)(F)/C=C/Cl [(E)-1-chloro-3,3,3-trifluoroprop-1-ene]
Details	mass density	speed of sound
419.56 K, 196.42 kPa, Gas	–	165.91 m/s
419.56 K, 196.56 kPa, Gas	–	165.91 m/s and 165.91 m/s
419.57 K, 196.49 kPa, Gas	–	165.9 m/s and 165.9 m/s
419.57 K, 196.51 kPa, Gas	–	165.9 m/s
419.57 K, 196.56 kPa, Gas	–	165.9 m/s
419.57 K, 196.57 kPa, Gas	–	165.9 m/s
419.57 K, 196.62 kPa, Gas	–	165.9 m/s
419.57 K, 196.63 kPa, Gas	–	165.91 m/s
419.58 K, 196.44 kPa, Gas	–	165.9 m/s
419.58 K, 196.51 kPa, Gas	–	165.9 m/s
419.58 K, 398.05 kPa, Gas	–	162.39 m/s
419.58 K, 398.07 kPa, Gas	–	162.39 m/s
419.58 K, 398.08 kPa, Gas	–	162.39 m/s
419.59 K, 803.55 kPa, Gas	–	154.82 m/s
419.59 K, 803.59 kPa, Gas	–	154.82 m/s
419.59 K, 803.61 kPa, Gas	–	154.82 m/s
419.59 K, 1212.4 kPa, Gas	–	146.32 m/s
419.6 K, 1212.4 kPa, Gas	–	146.32 m/s
419.6 K, 1723.5 kPa, Gas	–	133.88 m/s and 133.89 m/s
419.61 K, 2072 kPa, Gas	–	123.58 m/s
419.61 K, 2072.1 kPa, Gas	–	123.58 m/s
419.62 K, 2072.1 kPa, Gas	–	123.58 m/s
419.63 K, 2072.3 kPa, Gas	–	123.59 m/s
419.65 K, 2072.5 kPa, Gas	–	123.6 m/s
419.67 K, 2072.7 kPa, Gas	–	123.61 m/s
419.68 K, 2072.8 kPa, Gas	–	123.62 m/s
419.69 K, 2072.8 kPa, Gas	–	123.62 m/s
419.69 K, 2072.9 kPa, Gas	–	123.63 m/s
419.9 K, 1457.6 kPa, Gas	67.627 kg/m3	–
419.92 K, 1771.2 kPa, Gas	87.947 kg/m3	–
419.94 K, 4667.5 kPa, Fluid (supercritical or subcritical phases)	898.26 kg/m3	–
419.95 K, 2831.8 kPa, Fluid (supercritical or subcritical phases)	841.35 kg/m3	–
419.99 K, 510 kPa, Gas	20.295 kg/m3	–
420 K, 508.9 kPa, Gas	20.248 kg/m3	–
420 K, 645.1 kPa, Gas	26.148 kg/m3 and 26.149 kg/m3	–
424.94 K, 3746.2 kPa, Fluid (supercritical or subcritical phases)	841 kg/m3	–
429.9 K, 1513.1 kPa, Gas	67.627 kg/m3	–
429.9 K, 1847.8 kPa, Gas	87.931 kg/m3	–
429.94 K, 3475.7 kPa, Fluid (supercritical or subcritical phases)	782.51 kg/m3	–
429.94 K, 4675.4 kPa, Fluid (supercritical or subcritical phases)	840.63 kg/m3	–
430 K, 530.5 kPa, Gas	20.558 kg/m3	–
430 K, 669.6 kPa, Gas	26.403 kg/m3	–
434.94 K, 4229.4 kPa, Fluid (supercritical or subcritical phases)	782.14 kg/m3	–
439.89 K, 1922.8 kPa, Gas	87.898 kg/m3	–
439.9 K, 1568.8 kPa, Gas	67.676 kg/m3	–
439.95 K, 1137.4 kPa, Gas	46.158 kg/m3	–
439.95 K, 1568.5 kPa, Gas	67.645 kg/m3	–
440 K, 255.4 kPa, Gas	9.339 kg/m3	–
440 K, 550.9 kPa, Gas	20.806 kg/m3	–
440 K, 551.6 kPa, Gas	20.832 kg/m3	–
440 K, 694.2 kPa, Gas	26.651 kg/m3	–
440 K, 694.3 kPa, Gas	26.653 kg/m3	–
443.94 K, 475.9 kPa, Fluid (supercritical or subcritical phases)	17.642 kg/m3	–
443.94 K, 547.2 kPa, Fluid (supercritical or subcritical phases)	20.44 kg/m3	–
443.94 K, 1352.4 kPa, Fluid (supercritical or subcritical phases)	55.612 kg/m3	–
443.94 K, 1768.1 kPa, Fluid (supercritical or subcritical phases)	77.205 kg/m3	–
443.94 K, 2074.3 kPa, Fluid (supercritical or subcritical phases)	95.28 kg/m3	–
443.94 K, 2390.8 kPa, Fluid (supercritical or subcritical phases)	116.63 kg/m3	–
443.94 K, 2690.9 kPa, Fluid (supercritical or subcritical phases)	140.42 kg/m3	–
443.94 K, 2893.8 kPa, Fluid (supercritical or subcritical phases)	159.35 kg/m3	–
443.94 K, 3102.5 kPa, Fluid (supercritical or subcritical phases)	182.38 kg/m3	–
443.94 K, 3197.9 kPa, Fluid (supercritical or subcritical phases)	194.61 kg/m3	–
443.94 K, 3199.8 kPa, Fluid (supercritical or subcritical phases)	194.61 kg/m3	–
443.94 K, 3703.8 kPa, Fluid (supercritical or subcritical phases)	306.77 kg/m3	–
443.94 K, 3908.6 kPa, Fluid (supercritical or subcritical phases)	504.42 kg/m3	–
443.95 K, 3858 kPa, Fluid (supercritical or subcritical phases)	426.27 kg/m3	–
443.95 K, 4009.4 kPa, Fluid (supercritical or subcritical phases)	593.8 kg/m3	–
443.95 K, 4514.9 kPa, Fluid (supercritical or subcritical phases)	704.98 kg/m3	–
443.95 K, 5618.8 kPa, Fluid (supercritical or subcritical phases)	781.53 kg/m3	–

Details	vapor or sublimation pressure [kPa]
420 K	2589.3
424.98 K	2823.8
429.91 K	3073.2
429.98 K	3076.8
434.91 K	3346
434.97 K	3349.8
435.91 K	3403.5
437.91 K	3521

Reference: the NIST ThermoML archive (doi:10.1021/acs.jced.5b00348)
